Measurements as given in ChEMBL document CHEMBL5291721, “A preclinical secondary pharmacology resource illuminates target-adverse drug reaction associations of marketed drugs” (Nat Commun, 2023).

Key:
[1] = biological target: T1, Estrogen receptor (Homo sapiens, UniProt P03372)
T1 sequence (P03372 whole entry): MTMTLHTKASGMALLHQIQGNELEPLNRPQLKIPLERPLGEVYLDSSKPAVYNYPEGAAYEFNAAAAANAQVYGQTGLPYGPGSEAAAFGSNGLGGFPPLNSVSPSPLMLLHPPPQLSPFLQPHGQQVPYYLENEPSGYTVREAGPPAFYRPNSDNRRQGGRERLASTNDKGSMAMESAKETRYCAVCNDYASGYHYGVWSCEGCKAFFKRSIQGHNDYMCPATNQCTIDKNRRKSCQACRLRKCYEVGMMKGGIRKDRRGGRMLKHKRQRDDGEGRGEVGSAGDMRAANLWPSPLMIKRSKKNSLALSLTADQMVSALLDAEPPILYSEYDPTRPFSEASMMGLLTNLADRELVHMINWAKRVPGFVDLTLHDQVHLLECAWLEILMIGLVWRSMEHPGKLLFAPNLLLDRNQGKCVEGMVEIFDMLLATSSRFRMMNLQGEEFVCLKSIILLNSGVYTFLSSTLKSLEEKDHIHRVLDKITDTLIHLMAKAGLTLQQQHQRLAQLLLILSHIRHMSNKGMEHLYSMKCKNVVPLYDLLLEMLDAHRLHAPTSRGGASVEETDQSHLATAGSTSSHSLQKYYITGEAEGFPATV

[2] = biological target: Voltage-gated inwardly rectifying potassium channel KCNH2 (Homo sapiens, UniProt Q12809); assay type: functional
[3] = biological target: T2, 5-hydroxytryptamine receptor 1A (Homo sapiens, UniProt P08908); assay type: functional, cell-based
T2 sequence (P08908 whole entry): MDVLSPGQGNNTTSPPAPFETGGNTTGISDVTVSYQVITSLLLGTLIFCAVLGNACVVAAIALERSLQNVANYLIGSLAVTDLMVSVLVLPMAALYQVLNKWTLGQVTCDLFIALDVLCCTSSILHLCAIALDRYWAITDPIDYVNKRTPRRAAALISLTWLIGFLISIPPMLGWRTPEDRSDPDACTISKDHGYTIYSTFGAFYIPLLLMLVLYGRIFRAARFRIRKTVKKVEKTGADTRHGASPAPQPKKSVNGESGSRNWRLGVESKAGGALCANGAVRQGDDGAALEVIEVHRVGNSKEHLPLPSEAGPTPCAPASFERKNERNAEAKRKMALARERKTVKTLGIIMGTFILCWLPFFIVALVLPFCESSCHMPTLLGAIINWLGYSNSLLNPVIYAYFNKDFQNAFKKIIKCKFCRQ

[4] = biological target: T3, Muscarinic acetylcholine receptor M2 (Homo sapiens, UniProt P08172); assay type: functional, cell-based
T3 sequence (P08172 whole entry): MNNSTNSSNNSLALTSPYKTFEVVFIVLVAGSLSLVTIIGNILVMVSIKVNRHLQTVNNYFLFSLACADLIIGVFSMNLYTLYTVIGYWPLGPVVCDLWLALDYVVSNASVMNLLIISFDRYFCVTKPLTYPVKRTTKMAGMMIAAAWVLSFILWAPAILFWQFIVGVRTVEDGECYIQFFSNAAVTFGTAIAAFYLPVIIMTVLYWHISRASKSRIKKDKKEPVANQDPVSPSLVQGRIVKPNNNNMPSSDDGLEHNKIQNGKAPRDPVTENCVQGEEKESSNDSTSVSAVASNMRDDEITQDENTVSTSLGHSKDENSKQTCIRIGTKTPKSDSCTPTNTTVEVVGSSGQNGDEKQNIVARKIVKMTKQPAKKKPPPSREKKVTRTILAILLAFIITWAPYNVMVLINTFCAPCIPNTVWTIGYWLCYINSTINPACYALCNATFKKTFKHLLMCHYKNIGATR

[5] = biological target: T4, Cholecystokinin receptor type A (Homo sapiens, UniProt P32238)
T4 sequence (P32238 whole entry): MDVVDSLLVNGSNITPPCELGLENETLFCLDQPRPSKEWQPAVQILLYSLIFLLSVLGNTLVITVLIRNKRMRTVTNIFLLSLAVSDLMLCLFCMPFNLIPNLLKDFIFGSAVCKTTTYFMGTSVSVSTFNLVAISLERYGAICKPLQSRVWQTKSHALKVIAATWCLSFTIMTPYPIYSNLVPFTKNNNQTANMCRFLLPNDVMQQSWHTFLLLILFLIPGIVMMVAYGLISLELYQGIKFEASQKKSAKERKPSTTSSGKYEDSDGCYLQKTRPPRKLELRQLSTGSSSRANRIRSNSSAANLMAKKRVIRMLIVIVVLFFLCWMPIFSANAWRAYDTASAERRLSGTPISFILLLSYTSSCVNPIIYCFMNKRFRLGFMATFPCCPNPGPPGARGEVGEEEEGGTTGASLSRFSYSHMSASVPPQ

[6] = biological target: T5, B2 bradykinin receptor (Homo sapiens, UniProt P30411)
T5 sequence (P30411 whole entry): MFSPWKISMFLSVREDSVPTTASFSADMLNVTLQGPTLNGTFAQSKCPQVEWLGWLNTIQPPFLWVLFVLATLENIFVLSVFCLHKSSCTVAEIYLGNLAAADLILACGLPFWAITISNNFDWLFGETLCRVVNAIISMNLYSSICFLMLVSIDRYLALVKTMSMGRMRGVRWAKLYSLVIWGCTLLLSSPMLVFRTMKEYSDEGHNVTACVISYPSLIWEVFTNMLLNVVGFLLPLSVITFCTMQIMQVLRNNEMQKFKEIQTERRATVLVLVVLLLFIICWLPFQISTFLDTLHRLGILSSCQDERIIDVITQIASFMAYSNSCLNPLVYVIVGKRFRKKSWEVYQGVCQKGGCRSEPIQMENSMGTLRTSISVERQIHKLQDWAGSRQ

[7] = biological target: T6, Alpha-2A adrenergic receptor (Homo sapiens, UniProt P08913); assay type: functional, cell-based
T6 sequence (P08913 whole entry): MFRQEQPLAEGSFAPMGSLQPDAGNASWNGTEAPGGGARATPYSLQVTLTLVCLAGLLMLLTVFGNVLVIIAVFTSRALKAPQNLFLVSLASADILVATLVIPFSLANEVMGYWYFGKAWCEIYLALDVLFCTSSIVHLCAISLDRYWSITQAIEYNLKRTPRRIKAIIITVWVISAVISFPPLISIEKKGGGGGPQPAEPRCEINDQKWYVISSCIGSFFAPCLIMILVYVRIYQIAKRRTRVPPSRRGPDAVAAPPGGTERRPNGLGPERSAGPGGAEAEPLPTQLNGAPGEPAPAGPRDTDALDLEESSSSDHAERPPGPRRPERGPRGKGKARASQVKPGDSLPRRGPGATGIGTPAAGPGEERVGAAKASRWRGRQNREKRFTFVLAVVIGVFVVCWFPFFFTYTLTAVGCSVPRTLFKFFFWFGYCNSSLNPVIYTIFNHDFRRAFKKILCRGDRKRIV

[8] = biological target: D(3) dopamine receptor (Homo sapiens, UniProt P35462)
Also: assay procedure not described here.

Voltage-gated inwardly rectifying potassium channel KCNH2, sequence (Q12809 whole entry): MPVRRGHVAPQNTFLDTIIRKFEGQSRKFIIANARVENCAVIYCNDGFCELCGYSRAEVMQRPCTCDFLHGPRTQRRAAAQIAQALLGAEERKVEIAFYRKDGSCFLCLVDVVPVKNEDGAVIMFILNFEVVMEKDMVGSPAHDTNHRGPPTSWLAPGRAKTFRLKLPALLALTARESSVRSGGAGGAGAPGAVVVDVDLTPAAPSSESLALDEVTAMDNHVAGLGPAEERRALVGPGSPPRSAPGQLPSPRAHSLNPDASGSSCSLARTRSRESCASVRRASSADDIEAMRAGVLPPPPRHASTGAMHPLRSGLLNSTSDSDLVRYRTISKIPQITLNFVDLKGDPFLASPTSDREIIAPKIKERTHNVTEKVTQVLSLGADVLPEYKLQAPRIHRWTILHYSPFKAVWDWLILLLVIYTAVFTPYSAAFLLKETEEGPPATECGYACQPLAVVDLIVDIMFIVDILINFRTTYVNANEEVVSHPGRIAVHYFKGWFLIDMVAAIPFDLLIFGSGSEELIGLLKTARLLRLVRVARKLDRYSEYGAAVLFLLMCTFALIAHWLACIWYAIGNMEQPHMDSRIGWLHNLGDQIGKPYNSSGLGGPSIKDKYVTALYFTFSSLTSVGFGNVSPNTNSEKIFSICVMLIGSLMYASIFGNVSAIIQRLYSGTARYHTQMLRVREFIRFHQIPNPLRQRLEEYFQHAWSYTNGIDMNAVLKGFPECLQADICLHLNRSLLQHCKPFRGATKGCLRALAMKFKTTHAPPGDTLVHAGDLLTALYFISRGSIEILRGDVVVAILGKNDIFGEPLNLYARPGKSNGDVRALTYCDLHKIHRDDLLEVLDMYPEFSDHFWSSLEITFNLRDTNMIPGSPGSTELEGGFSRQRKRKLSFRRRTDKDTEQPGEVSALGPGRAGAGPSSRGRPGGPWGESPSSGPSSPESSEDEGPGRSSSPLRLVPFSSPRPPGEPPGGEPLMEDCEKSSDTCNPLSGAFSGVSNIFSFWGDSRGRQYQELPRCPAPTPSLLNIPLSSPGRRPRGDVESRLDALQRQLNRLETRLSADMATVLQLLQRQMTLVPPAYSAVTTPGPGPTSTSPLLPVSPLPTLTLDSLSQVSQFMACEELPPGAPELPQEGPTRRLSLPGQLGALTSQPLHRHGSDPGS
D(3) dopamine receptor, sequence (P35462 whole entry): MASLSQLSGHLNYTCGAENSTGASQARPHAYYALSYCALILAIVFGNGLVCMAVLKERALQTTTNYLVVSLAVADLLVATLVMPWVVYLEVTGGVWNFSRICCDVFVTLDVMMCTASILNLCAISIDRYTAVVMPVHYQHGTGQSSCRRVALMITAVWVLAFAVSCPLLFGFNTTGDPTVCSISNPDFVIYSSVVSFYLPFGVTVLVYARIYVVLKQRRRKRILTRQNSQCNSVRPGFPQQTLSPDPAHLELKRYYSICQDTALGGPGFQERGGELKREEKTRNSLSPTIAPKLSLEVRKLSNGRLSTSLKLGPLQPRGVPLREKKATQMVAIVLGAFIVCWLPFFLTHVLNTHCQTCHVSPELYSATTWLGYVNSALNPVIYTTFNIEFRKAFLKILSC

Row | SMILES | AC50 [1] | AC50 [2] | further results
1 | CC(=O)O[C@]1(C(C)=O)CC[C@H]2[C@@H]3C=C(Cl)C4=CC(=O)CC[C@]4(C)[C@H]3CC[C@@]21C [CHLORMADINONE ACETATE] | > 30 µM | > 30 µM | 
2 | CCN(CCCc1ccccc1)CCCc1ccccc1 [ALVERINE] | > 30 µM |  | 
3 | COc1cc2c(cc1OC)CC(=O)N(CCCN(C)C[C@H]1Cc3cc(OC)c(OC)cc31)CC2 [IVABRADINE] | > 30 µM | 30 µM | 
4 | COc1cc(N2CCC(N3CCN(C)CC3)CC2)ccc1Nc1ncc(Cl)c(Nc2ccccc2P(C)(C)=O)n1 [BRIGATINIB] | > 30 µM |  | 
5 | CCN(CC)C(=S)S [DITIOCARB] | > 30 µM |  | 
6 | CC(C)(C)NC[C@H](O)COc1cccc2c1CCCC2=O [LEVOBUNOLOL] | > 30 µM | > 30 µM | 
7 | CCOC(=O)[C@H](CCc1ccccc1)N[C@@H](C)C(=O)N(CC(=O)O)C1Cc2ccccc2C1 | > 30 µM | > 30 µM | 
8 | NCC(CC(=O)O)c1ccccc1 (stereo not given) [PHENIBUT] | > 30 µM | > 30 µM | 
9 | c1ccc2c(c1)CCc1ccccc1N2C1CN2CCC1CC2 (stereo not given) [QUINUPRAMINE] | > 30 µM | 12 µM | 
10 | CCOC(=O)N1CSC[C@H]1C(=O)O [TELMESTEINE] | > 30 µM | > 30 µM | 
11 | Cc1ncc(COP(=O)(O)O)c(C=O)c1O [PYRIDOXAL PHOSPHATE ANHYDROUS] | 10.3 µM | > 30 µM | 
12 | CC(N)Cc1ccc(O)cc1 (stereo not given) [HYDROXYAMPHETAMINE] | > 30 µM | > 30 µM | 
13 | CC(C(=O)O)c1ccc(-c2ccccc2)c(F)c1 (stereo not given) [FLURBIPROFEN] | > 30 µM | > 30 µM | AC50 [3]: > 10 µM; AC50 [4]: > 10 µM; AC50 [5]: > 10 µM; AC50 [6]: > 10 µM; AC50 [7]: > 10 µM; AC50 [8]: 0.086 µM
14 | NC(=O)OCC(O)COc1ccc(Cl)cc1 (stereo not given) [CHLORPHENESIN CARBAMATE] | > 30 µM | > 30 µM | 
15 | CN1CCN(C2=Nc3ccccc3Oc3ccc(Cl)cc32)CC1 [LOXAPINE] | > 30 µM | 10.6 µM | AC50 [3]: > 10 µM; AC50 [5]: > 30 µM; AC50 [6]: > 30 µM; AC50 [8]: 0.032 µM
16 | O=C(O)c1cn(C2CC2)c2cc(N3CCNCC3)c(F)cc2c1=O [CIPROFLOXACIN] | > 30 µM |  | AC50 [5]: > 30 µM; AC50 [6]: > 30 µM
17 | CN1C(=O)/C(=N\NC(N)=S)c2ccccc21 [METHISAZONE] | > 30 µM | > 30 µM | 
18 | COC(=O)c1ccc(O)cc1 [METHYLPARABEN] | > 30 µM | > 30 µM | 
19 | CC(C)N(CCNC(=O)CN1CCCC1=O)C(C)C | > 30 µM | > 30 µM | 
20 | C[C@H](Cc1cc2c(c(C(N)=O)c1)N(CCCO)CC2)NCCOc1ccccc1OCC(F)(F)F [SILODOSIN] | > 30 µM | 12.8 µM | AC50 [7]: > 30 µM
21 | CCCc1nc(C(C)(C)O)c(C(=O)O)n1Cc1ccc(-c2ccccc2-c2nnn[nH]2)cc1 [OLMESARTAN] | > 30 µM | > 30 µM | 
22 | CN(C)CCOC(c1ccccc1)c1ccc(Br)cc1 (stereo not given) [BROMODIPHENHYDRAMINE] | > 30 µM |  | 
23 | CC1=CCC(C(C)(C)O)CC1O (stereo not given) [SOBREROL] | > 30 µM |  | 
24 | Cc1cc(N)c2ccccc2[n+]1CCCCCCCCCC[n+]1c(C)cc(N)c2ccccc21 | 20.8 µM | 0.133 µM | 
25 | Cc1cnc(C(=O)NCCc2ccc(S(=O)(=O)NC(=O)NC3CCCCC3)cc2)cn1 [GLIPIZIDE] | > 30 µM |  | AC50 [3]: > 10 µM; AC50 [5]: > 30 µM; AC50 [6]: > 30 µM; AC50 [7]: > 10 µM
